Data reported in US7511145B2 (Genelabs Technologies, Inc., priority 2003, dated 2009).

Target: T1, HCV-NS5b (Hepatitis C virus genotype 1b, UniProt Q9WMX2)
T1 construct: (His)6 (C); made in house; host or cells: XL-1 cells (E. coli), IPTG-inducible plasmid, nickel-NTA purification
Assay: HCV-NS5b enzyme assay (incorporation of radiolabeled UTP)
Type: biochemical
Details: for inhibition at 33 µM: enzyme inhibition at compound concentration of 33 uM; for inhibition at 100 µM: read-out: % inh@100, enzyme inhibition at compound concentration of 100 uM
How it was run: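 His6-tagged NS5b lacking the C-terminal 21 residues, expressed in XL-1 and Ni-NTA purified. Reaction at pH 7.5 with 5 mM MgCl2, 10 μM each NTP including [3H]-UTP and biotinylated HCV heteropolymeric template, 2 h at 37° C; SPA read-out; % inhibition at 100 and 33 uM versus no-compound control, background subtracted.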

Structure (SMILES) | inhibition at 33 µM [%] | inhibition at 100 µM [%]
Cc1c(OCc2ccccc2)ccc(-c2ccc3cc(-c4nc5cc(C(=O)O)ccc5n4C4CCCCC4)ccc3n2)c1O [Compound 462, 2-[2-(4-benzyloxy-2-hydroxy-3-methyl-phenyl)-quinolin-6-yl]-1-cyclohexyl-1H-benzoimidazole-5-carboxylic acid] | 98.2 | 101
Cn1c2ccc(Cl)cc2c2cc(-c3ccc4cc(-c5nc6cc(C(=O)O)ccc6n5C5CCCCC5)ccc4n3)ccc21 [Compound 463, 2-[2-(6-chloro-9-methyl-9H-carbazol-3-yl)-quinolin-6-yl]-1-cyclohexyl-1H-benzoimidazole-5-carboxylic acid] | 96 | 97.2
Cc1nn(-c2ccccc2)c(C)c1-c1ccc2cc(-c3nc4cc(C(=O)O)ccc4n3C3CCCCC3)ccc2n1 [Compound 464, 1-cyclohexyl-2-[2-(3,5-dimethyl-1-phenyl-1H-pyrazol-4-yl)-quinolin-6-yl]-1H-benzoimidazole-5-carboxylic acid] | 99.7 | 100
O=C1COc2ccc(-c3ccc4cc(-c5nc6cc(C(=O)O)ccc6n5C5CCCCC5)ccc4n3)cc2N1 [Compound 465, 1-cyclohexyl-2-[2-(3-oxo-3,4-dihydro-2H-benzo[1,4]oxazin-6-yl)-quinolin-6-yl]-1H-benzoimidazole-5-carboxylic acid] | 98.8 | 101
NNc1cc(-c2ccccc2)nc2ccc(-c3nc4cc(C(=O)O)ccc4n3C3CCCCC3)cc12 [Compound 466, 1-Cyclohexyl-2-(4-hydrazino-2-phenyl-quinolin-6-yl)-1H-benzoimidazole-5-carboxylic acid] | 92.9 | 100
O=C(O)c1ccc2c(c1)nc(-c1ccc3nc(-c4ccccc4)cc(Sc4ccccc4)c3c1)n2C1CCCCC1 [Compound 467, 1-Cyclohexyl-2-(2-phenyl-4-phenylsulfanyl-quinolin-6-yl)-1H-benzoimidazole-5-carboxylic acid] | 96.3 | 100
COc1ccc(-c2ccc(OC)cc2-c2ccc3cc(-c4nc5cc(C(=O)O)ccc5n4C4CCCCC4)ccc3n2)cc1 [Compound 468, 1-cyclohexyl-2-[2-(4,4′-dimethoxy-biphen-2-yl)-quinolin-6-yl]-1H-benzoimidazole-5-carboxylic acid] | 99.3 | 99.1
COc1ccc(-c2ccc(O)cc2)c(-c2ccc3cc(-c4nc5cc(C(=O)O)ccc5n4C4CCCCC4)ccc3n2)c1 [Compound 469, 1-cyclohexyl-2-[2-(4′-hydroxy-4-methoxy-biphen-2-yl)-quinolin-6-yl]-1H-benzoimidazole-5-carboxylic acid] | 94.2 | 98.2
COc1ccc(-c2cccs2)c(-c2ccc3cc(-c4nc5cc(C(=O)O)ccc5n4C4CCCCC4)ccc3n2)c1 [Compound 470, 1-cyclohexyl-2-[2-(5-methoxy-2-thiophen-2-yl-phenyl)-quinolin-6-yl]-1H-benzoimidazole-5-carboxylic acid] | 101 | 99.4
Cc1cc(-c2ccccc2Br)nc2ccc(-c3nc4cc(C(=O)O)ccc4n3C3CCCCC3)cc12 [Compound 471, 2-[2-(2-Bromo-phenyl)-4-methyl-quinolin-6-yl]-1-cyclohexyl-1H-benzoimidazole-5-carboxylic acid] | 97.8 | 99.8
Cc1cc(-c2ccc3cc(-c4nc5cc(C(=O)O)ccc5n4C4CCCCC4)ccc3n2)c(-c2ccccc2)s1 [Compound 472, 1-cyclohexyl-2-[2-(5-methyl-2-phenyl-thiophen-3-yl)-quinolin-6-yl]-1H-benzoimidazole-5-carboxylic acid] | 97.1 | 98.1
O=C(O)c1ccc2c(c1)nc(-c1ccc3nc(-c4ccc(-n5ccnc5)cc4)ccc3c1)n2C1CCCCC1 [Compound 473, 1-cyclohexyl-2-[2-(4-imidazol-1-yl-phenyl)-quinolin-6-yl]-1H-benzoimidazole-5-carboxylic acid] | 99.2 | 97.4
